Experimental data taken from patent US20240012012A1, “BIOMARKER AND TREATMENT FOR VASCULAR COGNITIVE IMPAIRMENT AND RELATED CONDITIONS” (priority 2020, published 2024).

What was measured:
[1] = tested on: neurofilament light protein (NFL); experiment: Serum NFL quantification (Simoa NF-Light), murine heart failure model (Example 1); type: in vivo, mouse; conditions: 50 μg/kg/day and 500 μg/kg/day, relative to HF-saline
Method: Male C57Bl/6J adult mice (Harlan, 8-10 weeks old) were randomly assigned to either the sham control (n=12) or heart failure (HF) group (n=44). All mice prior to surgery were weighed and anesthetized. For the HF mice, myocardial infarction (MI) was induced by ligation of the left coronary artery (LCA). Under anesthesia (2.5% isoflurane in a mixture of air and 02) a thoracotomy was performed at the fourth left intercostal space and the LCA permanently ligated to induce a myocardial infarction (MI). Occlusion of the LCA was confirmed by observing blanching, a slight change in color of the anterior wall of the left ventricle downstream of the ligature. Sham mice underwent the same procedure with the exception of ligating the LCA.
Following 5 weeks post MI surgery, mice were treated for […] with daily subcutaneous injections as follows:
NFL Quantification: Immediately following the final NOR test, mice were sacrificed and serum samples were obtained for NFL quantification using the Simoa™ NF-Light® kit (Quanterix Cat #103186, Lot #501953), which quantifies neurofilament light (NFL). Assay samples were diluted 1:4 and calibrators were undiluted. As samples and calibrators were run in duplicate and analyzed using the HD-X Analyzer software package.

TNFα = experiment: Plasma cytokines, MILLIPLEX MAP Mouse High Sensitivity Multiplex Immunoassay; type: in vivo; conditions: 50 μg/kg/day; values at or below assay threshold represented as 3.12
Method: Mice were assigned randomly to the following treatment groups: Control-Saline (sham MI surgery, treated with saline), HF-treated (HF-PNA5, or HF-Ang-(1-7) with either 50 μg/kg/day, or 500 μg/kg/day), or HF-saline. Mice recovered for 5 weeks following MI before receiving 24 days of daily subcutaneous drug treatment. Within the last 3 days of injections, animals underwent Novel Object Recognition (NOR) testing (FIG. 6). […]
Cytokine concentrations were measured in the brain lysates and plasma samples by multiplex immunoassay using a MAGPIX Multiplexing Instrument and accompanying Multiplex Analyst software (MILLIPLEX MAP Mouse Cytokine/Chemokine Magnetic Bead Panel-Immunology Multiplex Assay; MCYTOMAG-70 K; Millipore Sigma, Burlington, Massachusetts). […] All samples were run in duplicate, and the results were analyzed using ANOVA and relevant post using GraphPad Prism9. To create a composite cytokine score, we calculated the z-scores for IL-2, IL-13, and IL-17 brain cytokines. […] The z-score was calculated for each cytokine using the following equation: […]

brain cytokines = experiment: Whole brain lysate cytokines, MILLIPLEX MAP Mouse High Sensitivity Multiplex Immunoassay; type: in vivo
Method: Mice were assigned randomly to the following treatment groups: Control-Saline (sham MI surgery, treated with saline), HF-treated (HF-PNA5, or HF-Ang-(1-7) with either 50 μg/kg/day, or 500 μg/kg/day), or HF-saline. Mice recovered for 5 weeks following MI before receiving 24 days of daily subcutaneous drug treatment. Within the last 3 days of injections, animals underwent Novel Object Recognition (NOR) testing (FIG. 6). Animal treatment groups were as listed: heart failure (HF)-saline treated n=15, (HF-Saline), Sham surgery-saline treated n=15 (Control-Saline), HF-Ang-(1-7) at 500 μg/kilogram body weight/day for 24 days (HF-A500) n=15, HF-Ang-(1-7) at 50 μg/kg body weight/day for 24 days (HF-A50) n=15, HF-PNA5 at 500 μg/kilogram body weight/day (HF-P500) n=15, HF-PNA5 at 50 μg/kilogram body weight/day (HF-P50) n=15. Following MI, up to 7 mice died within a group resulting in varying number of mice per group that were available to undergo treatment, NOR testing, and provide serum samples.
Mice were anesthetized with isoflurane and rapidly decapitated. Brains were separated from the skull and quickly cut into two hemispheres. The halves of the brain were then rapidly frozen in corning tubes in liquid nitrogen and stored at −80° C. One half of each brain was lysed using 1 mL RIPA buffer (1% Triton X-100, 0.1% SDS, 1×PBS) with protease (protease inhibitor cocktail 100× [Sigma P8340]) and phosphatase inhibitors (phosphatase inhibitor cocktail 100× [Sigma P5726]). Tissue was then sonicated using an ultrasonic cell disruptor at 30% 40% amplitude for 1 min. Samples were returned to ice in between sonication to prevent the tissue from warming. Samples were then centrifuged at 4° C. or 15 min at 13,000×g. The supernatant was collected and stored at −80° C. Total protein was measured in the range of […]. Brain lysates were used for multiplex immunoassays.
Cytokine concentrations were measured in the brain lysates and plasma samples by multiplex immunoassay using a MAGPIX Multiplexing Instrument and accompanying Multiplex Analyst software (MILLIPLEX MAP Mouse Cytokine/Chemokine Magnetic Bead Panel-Immunology Multiplex Assay; MCYTOMAG-70 K; Millipore Sigma, Burlington, Massachusetts). Simultaneous measurements of granulocyte colony-stimulating factor (GCSF), granulocyte-macrophage colony-stimulating factor, interferon, interleukin (IL)-1a, IL-1B, IL-2, IL-4, IL-5, IL-6, IL-7, IL-9, IL-10, IL-12 (p40), IL-12 (p70), IL-13, IL-15, IL-17, interferon-induced protein 10, chemokine (C-X-C motif) (CXC) ligand 1 (KC), chemokine (C-C motif) ligand (CCL) 2 (monocyte chemoattractant protein-1), CCL3 [macrophage inflammatory protein (MIP) 1a], CCL4 (MIP1b), CXC ligand 2 (MIP2), CCL5 [RANTES (regulated on activation normal T cell expressed and secreted)], and tumor necrosis factor-alpha (TNF-α) were captured. All samples were run in duplicate, and the results were analyzed using ANOVA and relevant post using GraphPad Prism9. To create a composite cytokine score, we calculated the z-scores for IL-2, IL-13, and IL-17 brain cytokines. Z-scores were then added to create a composite cytokine score. The z-score was calculated for each cytokine using the following equation: […]

[2] = tested on: neurofilament light protein (NFL); experiment: Serum NFL levels in patients undergoing coronary artery bypass grafting (CABG); type: in vivo, human; conditions: 200 μg/kg/day s.c. for 21 days, vs saline vehicle
Text: It is well documented that patients undergoing coronary artery bypass grafting (CABG) tend to experience post-surgical cognitive dysfunction. The present study elucidates the response in serum NFL levels to CABG and how that response may be modulated by Ang-(1-7) treatment. Potential CABG participants underwent a screening visit between 2 and 15 days prior to CABG surgery, including a full medical history and physical examination to rule out dementia (Mini-Mental State Exam score less than 25), and depression (Geriatric Depression Scale score greater than 10). Between 1 and 15 days prior to CABG surgery, participants underwent neuropsychological evaluation including memory testing and blood draws for clinical pathology assessment, NFL biomarker assessment. […] At 21 days post-surgery, additional blood samples were obtained, and serum NFL levels were measured.
The serum NFL concentration was measure in six subjects prior to CABG surgery and in 18 age-matched control subjects. […] Two subjects were administered saline vehicle control. […] Following surgery, serum NFL levels increased about four-fold in the patients treated with saline vehicle compared to pre-surgery level (p=0.0002).

DRVYIHP [Ang-(1-7), Asp-Arg-Val-Tyr-Ile-His-Pro, Mas receptor agonist]
HF-induced increase in serum NFL levels [1]: reversed
plasma TNFα, mean (TNFα): 3.12 pg/mL
brain IL-1α, mean ± SE (brain cytokines; 50 ug/kg): 95.6 ± 8.4 pg/mL
brain IL-10 (row head as printed; title says IP-10), mean ± SE (brain cytokines; 50 ug/kg): 42.2 ± 3.2 pg/mL
brain IL-17, mean ± SE (brain cytokines; 50 ug/kg): 44.1 ± 2.8 pg/mL
brain IL-1α, mean ± SE (brain cytokines; 500 ug/kg): 95.6 ± 5.5 pg/mL
brain IL-2, mean ± SE (brain cytokines; 500 ug/kg): 50.9 ± 1.9 pg/mL
brain IL-5, mean ± SE (brain cytokines; 500 ug/kg): 53.2 ± 2.7 pg/mL
brain IL-10 (row head as printed; title says IP-10), mean ± SE (brain cytokines; 500 ug/kg): 43.8 ± 4.2 pg/mL
brain IL-17, mean ± SE (brain cytokines; 500 ug/kg): 42.0 ± 1.1 pg/mL
brain lysate levels of IL-1α, IL-2, IL-5, IL-13, and IL-17 compared to HF-Saline (brain cytokines; A50 or A500 (50 or 500 ug/kg)): significantly increased
post-surgical increase in serum NFL [2]: significantly reduced that post-surgical increase
